According to patent US10376486B2, “Compositions and methods for reactivating latent viral infections” (priority 2014, dated 2019):

Experiments:
[1] = tested on: primary CD4+ T cells
Method: FIG. 5: Expression of T cell activation markers in PEP005-treated primary CD4+ T cells. (A) CD4+ T cells were isolated from uninfected control subjects and treated with 12 nM PEP005 for 24 hrs. Total RNA was extracted, and gene expression of CD38, CD69, CD25, or HLA-DR was analyzed by RT-qPCR. (B-F) PBMCs isolated from peripheral blood of healthy HIV-negative donors were treated for 24 or 72 hours with 12 nM of PEP005, and the expression of CD38 (B), CD69 (C, D), and HLA-DR (E, F) was evaluated using flow cytometry after co-staining with the CD3 T cell marker.
Isolation of the peripheral blood mononuclear cells (PBMC) and purification of CD4+ T cells using the EasySep kit ([sequence] Technologies Inc. Vancouver, BC, Canada) were performed as previously described [24]. The purified CD4+ T cells were plated at a density of 1×10^6 cells/ml and treated with 200 ng/ml PMA plus 2 μM Ionomycin, 6-12 nM PEP005, 2 μM of JQ1, or 12 nM PEP005 plus 2 μM JQ1 for 6 hrs or 48 hrs and the cells were collected for RNA purification. To measure changes in the cell activation status of CD4+ and CD8+ T cell subsets, PBMCs were isolated from uninfected controls and 2×10^6 cells were incubated with DMSO, 200 ng/ml PMA plus 2 μM Ionomycin, 6-12 nM PEP005 for 24 hrs or 72 hrs, and immunostained with anti-CD3, anti-CD38, anti-CD69, or anti-HLA-DR antibodies (Biolegend) for 20 min at 4° C. Cells were fixed in 1% PFA and analyzed by flow cytometry (FlowJo software from TreeStar).

[2] = tested on: latent HIV in primary CD4+ T cells; assay: Ex vivo HIV transcription in primary CD4+ T cells from HIV infected individuals on suppressive ART (RT-qPCR); format: cell-based
Method: Primary CD4+ T cells were isolated from peripheral blood of HIV infected individuals on suppressive ART and treated with 6 or 12 nM PEP005, 200 ng/ml PMA plus 2 μM lonomycin, or DMSO for 6 hours. Induction of HIV transcription was measured using RT-qPCR for the 5′ LTR region or Poly A region of the virus. **, p<0.01.
Primary CD4+ T cells were isolated from the peripheral blood of HIV positive individuals on suppressive ART and treated with 12 nM PEP005 alone or in combination with JQ1 for 6 hours, and HIV transcription was quantified using RT-qPCR for the 5′ LTR region or Poly A region of the virus.
Primary CD4+ T cells were isolated from the peripheral blood of HIV positive individuals on suppressive ART and treated with 12 nM PEP005 alone or in combination with JQ1 for 48 hours, and HIV transcription was quantified using RT-qPCR for the 5′ LTR region or Poly A region of the virus.
Primary CD4+ T cells were isolated from the peripheral blood of HIV positive individuals on suppressive ART and treated with 12 nM PEP005 alone or in combination with JQ1 for 6 or 48 hours, and HIV transcription was quantified using RT-qPCR for the 5′ LTR region or Poly A region of the virus.
Peripheral blood samples were collected from 13 HIV-infected individuals receiving suppressive ART for >3 years except for one patient. All subjects had suppression of plasma viremia for more than 6 months (Average 5.84 years). At the time of the study enrollment, CD4+ T cell counts in peripheral blood samples ranged from 264 to 1100 cells/mm^3 (Average 639 cell/mm^3) and plasma viral loads were <20 copies per ml as measured by qPCR (Table 1). Isolation of the peripheral blood mononuclear cells (PBMC) and purification of CD4+ T cells using the EasySep kit ([sequence] Technologies Inc. Vancouver, BC, Canada) were performed as previously described [24]. The purified CD4+ T cells were plated at a density of 1×10^6 cells/ml and treated with 200 ng/ml PMA plus 2 μM Ionomycin, 6-12 nM PEP005, 2 μM of JQ1, or 12 nM PEP005 plus 2 μM JQ1 for 6 hrs or 48 hrs and the cells were collected for RNA purification.

[3] = tested on: J-Lat A1 cells, U1 cells, primary CD4+ T cells; assay: Cell proliferation / S-phase progression by BrdU ELISA; format: cell-based; details: U1 cells or primary CD4+ T cells, 12 nM PEP005, 24 hours
Method: FIG. 7: PEP005 causes minimal cytotoxicity and T cell proliferation. To evaluate the impact of PEP005 on the cell viability, U1 cells (A), J-Lat A1 cells (B) and CD4+ T cells (C) were treated with 12 nM of PEP005 for 24 hours, the cell viability was examined with the MTT assay and the S-phase cell cycle progression was evaluated after BrdU incorporation using BrdU ELISA. 25-50 μM Etoposide or 100-150 μM Doxorubicin (Doxo) served as positive controls for MTT and BrdU assays respectively. Statistical analysis was performed in comparison with controls. **, p<0.01.
Cells were placed in 96-well plates and incubated for 24 or 72 h hrs with compounds. Cell viability was measured using MTT assay (Roche Laboratories), and cell proliferation/S-phase progression was determined by using BrdU ELISA kit (Cell signaling, #1863).

[4] = tested on: PKCδ/θ-IκBα/ε-NF-κB signaling; assay: Western blot of PKC isoforms, IκB isoforms and NF-κB/p65; format: cell-based; details: J-Lat A1 cells
Method: Western blot analysis was performed to detect the expression of PKC isoforms, IκB isoforms, as well as expression of NF-κB/p65.
Whole cell protein extracts were prepared with RIPA buffer containing proteinase inhibitors and phosphatase inhibitors (Sigma). Expression of the isoforms of PKC protein or NF-κB/p65 was evaluated using the PKC Isoform Sampler Antibody Kit (Cell Signaling, 9960S) or anti-NF-κB/p65 (Abcam). The level of phosphorylation of PKC was determined using anti-Phospho-Ser664-PKCδ, anti-Phospho-Ser643/676 PKCδ or anti-Phospho-T538-PKCθ (Millipore), and the level of phosphorylation of IκB was determined using p-IκBα(Ser32), p-IκBβ (Thr19/Ser23) or p-IκBε(Ser18/22) antibodies (Millipore).

[5] = tested on: NF-κB/p65 binding to HIV LTR; assay: ChIP-qPCR of NF-κB/p65 binding to the HIV LTR in J-Lat A1 cells; format: cell-based; details: 12 nM PEP005
Method: FIG. 4: PEP005-induced HIV reactivation is mediated through PKCδ/θ-IκBα/ε-NF-κB signaling. (A) PEP005-induced HIV reactivation is suppressed by inhibition of the PKCδ/θ. J-Lat A1 cells were treated with 6 nM of PEP005 in the presence of 1, 2 or 5 μM of PKC inhibitor (PKCθ/δ inhibitor; Milipore/Calbiochem (539649)) and evaluated for GFP expression by RT-qPCR. (B) NF-κB inhibition partially suppresses PEP005-induced HIV reactivation in J-Lat A1 cells. J-Lat A1 cells were treated with 6 nM of PEP005 in the presence of 2.5 μM Bay 11-7082, an NF-κB inhibitor, and were evaluated for GFP expression by RT-qPCR. (C) J-Lat A1 cells were treated with PEP005 or alternatively with PKC inhibitor alone or in the presence of PEP005 and the relative binding of NF-κB to the HIV LTR was determined using ChIP-qPCR.
Chromatin immunoprecipitation (ChIP): ChIP assay was performed as previously described. Briefly, 1×10^6 J-Lat A1 cells were incubated with PEP005, or PKCδ/θ inhibitor (PKGδi, Millipore/Calbiochem), fixed in 1% formaldehyde then resuspended in lysis buffer containing 1% SDS, 10 mM EDTA, 50 mM Tris-HCl, pH 8.1 (ChIP Assay Kit, Millipore) and protease inhibitor cocktail (Sigma-Aldrich). […] DNA was extracted (Qiagen PCR purification kit) and quantitative real-time PCR was performed using Agilent Brilliant Ultra-Fast SYBR Green QPCR reagent using the 7500 real-time PCR System. […]

[6] = tested on: HIV-1 IIIB; assay: HIV-1 infection of primary CD4+ T cells pre-treated with PEP005 (RT-qPCR, p24 ELISA); format: cell-based; details: pre-treatment with 12 or 24 nM PEP005; 3 and 5 days after HIV infection
Method: FIG. 12: PEP005 down-modulates the expression of CD4, CCR5 and CXCR4 and inhibits HIV infection of primary CD4+ T cells ex vivo. (A) PEP005 inhibits expression of HIV receptors/co-receptors. […] The expression of CD4, CCR5 and CXCR4 genes was evaluated using RT-qPCR after normalizing for GAPDH. (B) and (C) PEP005 inhibits HIV infection of primary CD4+ T cells ex vivo. Primary CD4+ T cells were pre-treated with 12 or 24 nM PEP005 overnight and infected with the virus. The CD4+ T cells were incubated for 5 days without PEP005. The cells were collected for RT-qPCR targeting the HIV LTR region (B), or supernatants were collected for p24 ELISA (C). *, p<0.05; **, p<0.01.
Primary CD4+ T cells were isolated from peripheral blood samples of healthy HIV-negative donors and were pre-treated with PEP005 overnight. The CD4+ T cells were infected with HIV-1 (HIV-1 IIIB expanded in Jurkat T cells, 100 ng p24-gag) through spinoculation as described previously. Following an exposure of 24 hrs to HIV, the cells were washed. Cell supernatants were collected and HIV p24 levels were measured by ELISA. The cells were also collected for RNA extraction and measurement of viral transcripts by RT-qPCR.

[7] = systemic (intravenous), mini pig and rat model; cited from earlier work
[8] = PBMCs of healthy HIV-negative donors, 12 nM PEP005, 24 or 72 hours
[9] = purified primary CD4+ T cells, 12 nM PEP005, 24 hrs

Compound: C/C=C(/C)C(=O)O[C@H]1C(C)=C[C@]23C(=O)[C@@H](C=C(CO)[C@@H](O)[C@]12O)[C@H]1[C@@H](C[C@H]3C)C1(C)C [PEP005, (1aR,2S,5R,5aS,6S,8aS,9R,10aR)-5,5a-Dihydroxy-4-(hydroxymethyl)-1,1,7,9-tetramethyl-11-oxo-1a,2,5,5a,6,9,10,10a-octahydro-1H-2,8a-methanocyclopenta[a]cyclpropa[e][10]annulen-6-yl (2Z)-2-methylbut-2-enoate]
- expression of CD38 (24 hr) and HLA-DR by flow cytometry [1, 8]: no significant change
- expression of CD69 by flow cytometry [1, 8]: increase in expression of CD69
- expression of CD38, CD25, or HLA-DR by RT-qPCR [1, 9]: did not cause any significant change
- expression of CD69 by RT-qPCR [1, 9]: increased expression of CD69
- individuals with increase in HIV transcription, 5′ LTR region ([2]; 6 nM PEP005, 6 hrs): 2 out of 7
- donors with 2 or >2 fold increase in full-length HIV transcripts, poly A region ([2]; 12 nM PEP005): 5 of the 6
- HIV RNA copy number in 1 μg of total RNA from CD4+ T cells ([2]; 12 nM PEP005, 6 hr, vs control treatment): significantly induced latent HIV reactivation
- individuals with HIV transcription, 5′ LTR region ([2]; 12 nM PEP005, 6 hrs): 5 out of 7
- donors with 2 fold or >2 fold increase in full-length HIV transcripts, poly A region ([2]; After 6 hours of PEP005 treatment): 5 of the 7
- proportion of cells in S-phase (BrdU) [3]: did not induce any significant increase
- expression of NF-κB/p65 ([4]; 12 nM PEP005): did not change
- phosphorylation of IκB isoforms ([4]; 12 nM PEP005): induced phosphorylation of IκBα and IκBε, but not of IκBβ
- expression of PKC proteins ([4]; 12 nM PEP005, 1 hr): modest up-regulation of PKCδ
- phosphorylation of Ser643/Ser676 in PKCδ/θ ([4]; 12 nM PEP005, as early as 30 minutes post treatment): greater than a two-fold increase
- increase in NF-κB/p65 binding to HIV LTR region [5]: 6 fold
- HIV gene expression after HIV infection (RT-qPCR, HIV LTR region) [6]: dampened HIV gene expression
- viral replication after HIV infection (p24 ELISA) [6]: decreased the level of viral replication
- maximum nonlethal dose [7]: > 0.073 mg/kg
